Patent US11873279B2, “Compositions for treatment of ocular diseases” (Perfuse Therapeutics, Inc., priority 2020, dated 2024)

What was measured:
[1] = system: laser-induced NHP glaucoma model; assay: Laser-induced NHP glaucoma model, optic nerve head blood flow; assay type: in vivo, non-human primate (NHP); conditions: dose-dependent
Excerpt: Other examples of relevant animal glaucoma models are Morrison's rat model of chronically elevated IOP and the laser-induced non-human primate (NHP) glaucoma model. Glaucoma in Morrison's rat model is induced by sustained elevation of IOP through hypertonic saline administration via episcleral veins. […] Efficacy in the above-described glaucoma models is defined as reduction in IOP, improvement in optic nerve head or retinal blood flow from baseline, prevention or slowing of the progression of structural neurodegenerative changes such as retinal nerve fiber layer thickness as measured by optical coherence tomography (OCT) or retinal ganglion cell counts on flat mount as well as functional changes such as electroretinography (ERG) or contrast sensitivity after treatment with a composition containing Edonentan crystalline forms.

[2] = Slurry conversion of crystalline forms, XRPD confirmation (thermodynamic stability); assay type: physicochemical
Description: For example, a disclosed crystalline form (e.g., Form 4), may be stored under practical and economical storage conditions, while retaining physical properties so that it may be manufactured into a dosage form. In another set of examples, a disclosed crystalline form (e.g., Form 1, Form 2, Form 3) are converted to disclosed crystalline form (e.g., Form 4). For example, heating a slurry of crystalline Form 1 in about 20 mL of a mixture of isopropanol and water (1:2) at 80° C. for 24 hours, and then cooling and filtering the sample obtained from the solution affords the crystalline Form 4. In another example, stirring the amorphous form of a compound of Formula I in 20 mL of water at 25° C. for 15 hours affords crystalline Form 2, and then subsequently heating crystalline Form 2 at 100° C. for 40 hours followed by filtration affords the crystalline Form 4. In yet another example, heating a slurry of the anhydrous crystalline Form 3 in 30 mL of water at 80° C. for 40 hours and then cooling and filtering the sample obtained from the solution affords the crystalline Form 4. […] In an embodiment, a disclosed crystalline form may have improved chemical and/or physical stability when e.g., compounded in a pharmaceutical formulation, as compared to e.g., the amorphous form. In some embodiments, the crystalline form is crystalline Form 4.
In an alternate method, 150 mg of Edonentan (Form 3) was added to a mixture of isopropanol and water (1 mL and 2 mL, respectively). The resulting slurry was stirred at 15° C. for 48 hours and then filtered.
In an alternate method, 200 mg of Edonentan (Form 1) was added to a mixture of isopropanol and water (1.3 mL and 2.6 mL, respectively). The resulting solution was heated to 80° C. and stirred for 24 h, then cooled and filtered.

Cc1onc(NS(=O)(=O)c2ccccc2-c2ccc(-c3ncco3)cc2CN(C)C(=O)CC(C)(C)C)c1C [Edonentan, N-[[2′-[[(4,5-dimethyl-3-isoxazolyl)amino]sulfonyl]-4-(2-oxazolyl)[1,1′-biphenyl]-2-yl]methyl]-N,3,3-trimethylbutanamide]
Optic nerve head blood flow [1]: improve optic nerve head blood flow in a dose-dependent manner

Cc1onc(NS(=O)(=O)c2ccccc2-c2ccc(-c3ncco3)cc2CN(C)C(=O)CC(C)(C)C)c1C [Form 4, N-[[2′-[[(4,5-dimethyl-3-isoxazolyl)amino]sulfonyl]-4-(2-oxazolyl)[1,1′-biphenyl]-2-yl]methyl]-N,3,3-trimethylbutanamide]
Thermodynamic stability relative to Form 1 ([2]; Form 1 in isopropanol/water (1.3 mL/2.6 mL), 80° C., 24 h, converted to Form 4 by XRPD): more thermodynamically stable than Form 1
Thermodynamic stability relative to Form 3 ([2]; Form 3 slurry in isopropanol/water (1 mL/2 mL), 15° C., 48 hours, converted to Form 4 by XRPD): more thermodynamically stable than Form 3
Thermodynamic stability compared to the other crystalline forms ([2]; summary statement of Example 6): higher thermodynamic stability compared to Form 1, Form 2 and Form 3
